Assay results from ChEMBL document CHEMBL5385912, “Macrocycles and Acyclic Cucurbit[n]urils as Pseudo[2]catenane Partners for Long-Acting Neuromuscular Blocks and Rapid Reversal In Vivo” (J Med Chem, 2024).
Calls of active or inactive are those of the source. No cut-off for these calls is given here.

How the values were obtained:
Rattus norvegicus [1] = species: Rattus norvegicus; test: Neuromuscular blocking in Sprague-Dawley rat assessed as inhibition of electrical stimulation induced twitch amplitude; type: functional
Rattus norvegicus [2] = test: Neuromuscular blocking in Sprague-Dawley rat assessed as inhibition of electrical stimulation induced twitch amplitude at 0.8 mg/kg, iv; type: functional, organism-based
[3] = Solubility of compound in Na2HPO4/NaH2PO4 buffer; type: physicochemical
Rattus norvegicus [4] = test: (§1) Reversal of 2,27-dioxa-11,18,36,43-tetraza-8,21,33,46-tetrazoniaundecacyclo[46.2.2.23,6.213,16.223,26.228,31.238,41.18,11.118,21.133,36.143,46]hexahexaconta-1(50),3,5,8(64),9,13(63),14,16(62),19,21(61),23,25,28,30,33(56),34,38,40,44,46(53),48,51,54,57,59,65-hexacosaene tetrachloride induced neuromuscular block in Sprague-Dawley rat assessed as recovery time at 0.36 mg/kg, iv; type: functional
Rattus norvegicus [5] = test: Neuromuscular blocking in Sprague-Dawley rat assessed as duration time to TOF ratio of 0.25 recovery at 3.5 mg/kg, iv; type: functional
[6] = Solubility of compound in phosphate buffer; type: physicochemical
Rattus norvegicus [7] = test: as §1, with “2.5” for “0.36”; type: functional
Rattus norvegicus [8] = test: as §1, with “10” for “0.36”; type: functional
Rattus norvegicus [9] = test: Neuromuscular blocking in Sprague-Dawley rat assessed as duration time to TOF ratio of 0.25 recovery at 1.6 mg/kg, iv; type: functional
Rattus norvegicus [10] = test: Neuromuscular blocking in Sprague-Dawley rat assessed as duration time to TOF ratio of 0.25 recovery at 2.4 mg/kg, iv; type: functional
H9c2 = test: Cytotoxicity against rat H9C2 cells at 512 ug/ml incubated for 24 hrs by CCK8 assay; type: toxicity, cell-based; conditions: h9c2, 24 h, dose 512 µg/ml
L02 = test: Cytotoxicity against L02 cells at 512 ug/ml incubated for 24 hrs by CCK8 assay; type: toxicity, cell-based; conditions: human, l02, 24 h, dose 512 µg/ml
Erythrocyte [11] = test: Hemolysis in human RBC; type: toxicity, cell-based
Erythrocyte [12] = test: Hemolysis in rat RBC; type: toxicity, cell-based
[13] = Toxicity in Sprague-Dawley rat at 9 mg/kg, iv measured after 1 hr; type: organism-based; conditions: in vivo
Rattus norvegicus [14] = test: as §1, with “20” for “0.36”; type: functional
Rattus norvegicus [15] = test: as §1, with “50” for “0.36”, “iv after 1 min” for “iv”; type: functional
[16] = Toxicity in ICR mouse assessed as maximal tolerated dose; conditions: in vivo
[17] = Toxicity in ICR mouse assessed as weight loss at 400 mg/kg, iv measured after 1 day; type: organism-based; conditions: in vivo, 24 h
[18] = Toxicity in ICR mouse assessed as heart abnormality at 200 to 400 mg/kg after 14 days by H and E staining based optical microscopic analysis; type: organism-based; conditions: in vivo, 336 h, dose 200-400 mg/kg, time 14 day
[19] = Toxicity in ICR mouse assessed as liver abnormality at 200 to 400 mg/kg after 14 days by H and E staining based optical microscopic analysis; type: organism-based; conditions: in vivo, 336 h, dose 200-400 mg/kg, time 14 day
[20] = Toxicity in ICR mouse assessed as spleen abnormality at 200 to 400 mg/kg after 14 days by H and E staining based optical microscopic analysis; type: organism-based; conditions: in vivo, 336 h, dose 200-400 mg/kg, time 14 day
[21] = Toxicity in ICR mouse assessed as lung abnormality at 200 to 400 mg/kg after 14 days by H and E staining based optical microscopic analysis; type: organism-based; conditions: in vivo, 336 h, dose 200-400 mg/kg, time 14 day
[22] = Toxicity in ICR mouse assessed as kidney abnormality at 200 to 400 mg/kg after 14 days by H and E staining based optical microscopic analysis; type: organism-based; conditions: in vivo, 336 h, dose 200-400 mg/kg, time 14 day

With `[Cl-].[Cl-].[Cl-].[Cl-].c1cc2ccc1Cn1cc[n+](c1)Cc1ccc(cc1)-c1ccc(cc1)C[n+]1ccn(c1)Cc1ccc(cc1)Cn1cc[n+](c1)Cc1ccc(cc1)-c1ccc(cc1)C[n+]1ccn(c1)C2` the ED90 (Rattus norvegicus [1]) was 1.07 mg/kg, the Activity (Rattus norvegicus [2]) was “inactive” and the solubility [3] was 21 mg/mL.

`CN(C)C(=O)Oc1cccc([N+](C)(C)C)c1` [NEOSTIGMINE] gave a Time (Rattus norvegicus [4]) of 694 s.

With `COc1ccc(Cn2cc[n+](Cc3ccc(C[n+]4ccn(Cc5ccc(OC)cc5)c4)cc3)c2)cc1` the Activity (Rattus norvegicus [2]) was “inactive”.

For `c1cc2ccc1C[n+]1ccc(cc1)-c1cc[n+](cc1)Cc1ccc(cc1)C[n+]1ccc(cc1)-c1cc[n+](cc1)C2`, the Activity (Rattus norvegicus [2]) was “inactive”.

With `c1cc2ccc1Cn1cc[n+](c1)Cc1ccc(cc1)C[n+]1ccn(c1)Cc1ccc(cc1)O2` the Activity (Rattus norvegicus [2]) was “inactive”.

In the case of `C=CC[N+]1([C@H]2C[C@H]3[C@@H]4CC[C@H]5C[C@H](O)[C@@H](N6CCOCC6)C[C@]5(C)[C@H]4CC[C@]3(C)[C@H]2OC(C)=O)CCCC1` [ROCURONIUM], the Time (Rattus norvegicus [5]) was 497 s.

In the case of `C[C@]12N3Cc4c(OCCCC(=O)[O-])ccc(OCCCC(=O)[O-])c4CN1C(=O)N1CN4C(=O)N5CN6C(=O)N7CN8C(=O)N9Cc%10c(OCCCC(=O)[O-])ccc(OCCCC(=O)[O-])c%10CN%10C(=O)N(CN%11C(=O)N(CN%12C(=O)N(CN(C3=O)[C@]12C)[C@@H]4[C@H]%125)[C@@H]6[C@H]%117)[C@]8(C)[C@@]9%10C.[Na+].[Na+].[Na+].[Na+]`, the solubility [6] was 549 mg/mL, the Time (Rattus norvegicus [7]) was 411 s and the Time (Rattus norvegicus [8]) was 18 s.

In the case of `c1ccc(C[n+]2ccn(Cc3ccc(Oc4ccc(Cn5cc[n+](Cc6ccccc6)c5)cc4)cc3)c2)cc1`, the Activity (Rattus norvegicus [2]) was “inactive”.

In the case of `[Cl-].[Cl-].[Cl-].[Cl-].c1cc2ccc1Cc1ccc(cc1)C[n+]1ccn(c1)Cc1ccc(cc1)Cn1cc[n+](c1)Cc1ccc(cc1)Cc1ccc(cc1)C[n+]1ccn(c1)Cc1ccc(cc1)Cn1cc[n+](c1)C2`, the ED90 (Rattus norvegicus [1]) was 1.16 mg/kg, the Activity (Rattus norvegicus [2]) was “inactive” and the solubility [3] was 58 mg/mL.

Compound `C[C@]12N3Cc4c(c(OCCCS(=O)(=O)[O-])c5ccccc5c4OCCCS(=O)(=O)[O-])CN1C(=O)N1CN4C(=O)N5CN6C(=O)N7CN8C(=O)N9Cc%10c(c(OCCCS(=O)(=O)[O-])c%11ccccc%11c%10OCCCS(=O)(=O)[O-])CN%10C(=O)N(CN%11C(=O)N(CN%12C(=O)N(CN(C3=O)[C@]12C)[C@@H]4[C@H]%125)[C@@H]6[C@H]%117)[C@]8(C)[C@@]9%10C.[Na+].[Na+].[Na+].[Na+]` has a solubility [6] of 29.5 mg/mL, a Time (Rattus norvegicus [7]) of 215 s and a Time (Rattus norvegicus [8]) of 18 s.

Work on `[Cl-].[Cl-].[Cl-].[Cl-].c1cc2ccc1Cn1cc[n+](c1)Cc1ccc(cc1)Oc1ccc(cc1)C[n+]1ccn(c1)Cc1ccc(cc1)Cn1cc[n+](c1)Cc1ccc(cc1)Oc1ccc(cc1)C[n+]1ccn(c1)C2` yielded an ED90 (Rattus norvegicus [1]) of 0.8 mg/kg, a Time (Rattus norvegicus [9]) of 1785 s and a Time (Rattus norvegicus [10]) of 4965 s. The Activity (H9c2) was “Non-Toxic”, the Activity (L02) was “Non-Toxic” and the Activity (Erythrocyte [11]) was “Non-Toxic”. The Activity (Erythrocyte [12]) was “Non-Toxic”, the Activity [13] was “Non-Toxic” and the solubility [3] was 78 mg/mL.

Work on `Cc1c(C)c(OCCCC(=O)[O-])c2c(c1OCCCC(=O)[O-])CN1C(=O)N3CN4C(=O)N5CN6C(=O)N7CN8C(=O)N9Cc%10c(c(OCCCC(=O)[O-])c(C)c(C)c%10OCCCC(=O)[O-])CN%10C(=O)N(CN%11C(=O)N(CN%12C(=O)N(CN%13C(=O)N(C2)[C@]1(C)[C@]%133C)[C@@H]4[C@@H]5%12)[C@@H]6[C@@H]7%11)[C@]8(C)[C@]%109C.[Na+].[Na+].[Na+].[Na+]` yielded a solubility [6] of 400 mg/mL, a Time (Rattus norvegicus [7]) of 259 s and a Time (Rattus norvegicus [8]) of 16 s.

With `O=C(O)CCSC[C@H]1O[C@@H]2O[C@H]3[C@H](O)[C@@H](O)[C@@H](O[C@H]4[C@H](O)[C@@H](O)[C@@H](O[C@H]5[C@H](O)[C@@H](O)[C@@H](O[C@H]6[C@H](O)[C@@H](O)[C@@H](O[C@H]7[C@H](O)[C@@H](O)[C@@H](O[C@H]8[C@H](O)[C@@H](O)[C@@H](O[C@H]9[C@H](O)[C@@H](O)[C@@H](O[C@H]1[C@H](O)[C@H]2O)O[C@@H]9CSCCC(=O)O)O[C@@H]8CSCCC(=O)O)O[C@@H]7CSCCC(=O)O)O[C@@H]6CSCCC(=O)O)O[C@@H]5CSCCC(=O)O)O[C@@H]4CSCCC(=O)O)O[C@@H]3CSCCC(=O)O` the Time (Rattus norvegicus [14]) was 1175 s.

For `C[C@]12N3Cc4c(c(OCCCC(=O)[O-])c5ccccc5c4OCCCC(=O)[O-])CN1C(=O)N1CN4C(=O)N5CN6C(=O)N7CN8C(=O)N9Cc%10c(c(OCCCC(=O)[O-])c%11ccccc%11c%10OCCCC(=O)[O-])CN%10C(=O)N(CN%11C(=O)N(CN%12C(=O)N(CN(C3=O)[C@]12C)[C@@H]4[C@H]%125)[C@@H]6[C@H]%117)[C@]8(C)[C@@]9%10C.[Na+].[Na+].[Na+].[Na+]`, the solubility [6] was 293 mg/mL, the Time (Rattus norvegicus [7]) was 205 s and the Time (Rattus norvegicus [8]) was 16 s. The Time (Rattus norvegicus [14]) was 17 s, the Activity (H9c2) was “Non-Toxic” and the Activity (L02) was “Non-Toxic”. The Activity (Erythrocyte [11]) was “Non-Toxic”, the Activity (Erythrocyte [12]) was “Non-Toxic” and the Activity (Rattus norvegicus [15]) was 100%. For the same compound, the MTD [16] was 550 mg/kg, the Activity [17] was “Toxic” and the Activity [18] was “Non-Toxic”. For the same compound, the Activity [19] was “Non-Toxic”, the Activity [20] was “Non-Toxic” and the Activity [21] was “Non-Toxic”. The Activity [22] was “Non-Toxic”.
